# Experimental data published in article PMC10223470 (Molecules, 2023).
# Columns and labels:
# [1] = target: T1, human dopamine D1 receptor (Homo sapiens, UniProt P21728); test: Competition radioligand binding at human D1 receptor ([3H]-SCH-23390); conditions: mean ± SEM of 2 independent experiments, read-out: huD1 % inh. at 10 µM
# T1 construct: expressed in transfected cells; host or cells: CHO-K1
# Experimental: (§1) Competition radioligand binding assays were performed on membranes isolated from cell lines stably expressing the cloned human receptors, which were either in-house or commercially available. […] Assays (250 μL assay final volume) were carried out in 96-well polypropylene plates in duplicate. In short, the suspension of appropriate membrane protein was incubated in an assay buffer with the addition of the corresponding radioligand, in the presence or absence of a tested compound or reference compound. […] After the incubation, the content of the test plates was transferred to 96 well plates with glass fiber filter GF/B or GF/C, previously pretreated with polyethyleneimine (PEI), and rapidly filtered with the use of vacuum, followed by rapid washing with cold (4 °C) wash buffer. After that, the filter plates were dried at 60 °C for 1 h. Then, 30 μL of liquid scintillation cocktail (UniverSol-ES, MP Biomedicals, Solon, OH, USA) was added to each well of the filter plates, and the radioactivity was measured in a MicroBeta^2 microplate scintillation counter (PerkinElmer, Madrid, Spain).
# (§2) Competition binding curves were fitted to a one-site competition binding model (Fit Ki) with the use of Prism 7 software (GraphPad, San Diego, CA, USA). logKi (log of the equilibrium dissociation constant (Ki)) values were obtained after constraining the concentration of radioligand employed in the assay and its dissociation constant (KD) as determined in saturation radioligand binding assays.
# mice = test: Amphetamine-induced hyperactivity in mice; type: in vivo; conditions: amphetamine 3 mg/kg s.c.; for effect on amphetamine-induced hyperactivity after 10 min / effect on amphetamine-induced hyperactivity after 30 min: p < 0.05 vs amphetamine group
# Experimental: The experiments were carried out on 6 weeks old naive Swiss male mice (Experimental Medicine Center (OMD), Lublin, Poland), weighing 28–30 g. The cages with mice were located in air-conditioned rooms maintaining the ambient temperature within the range of 23–25 °C. The animals were provided with a natural 12 h day/night cycle, replicating the day and night mode. Each testing group was represented by 8–10 animals, depending on the research schedule. All experiments were conducted according to the National Institute of Health Guidelines for the Care and Use of Laboratory Animals (8th edition) and to the European Community Council Directive for the Care and Use of Laboratory Animals of 22 September 2010 (2010/63/EU) and were approved by the Local Ethical Committee (number of ethical approval: 147/2018).
# Compound 17 (25, 50, 75 mg/kg) was suspended in 1% Tween 80 in saline solution and was administered intraperitoneally (i.p.) 60 min before the test. Diazepam (DZ, Relanium, Polfa, Poland) at a dose of 1 mg/kg was diluted in 0.9% saline containing 1% Tween 80 and was administered subcutaneously (s.c.), 60 min before the test. Imipramine hydrochloride (30 mg/kg, Sigma-Aldrich was administered intraperitoneally (i.p.) 60 min before the test. D-amphetamine sulfate (3 mg/kg; Sigma-Aldrich, USA) was given subcutaneously (s.c.). Prior to administration, the agent was dissolved in saline and injected 30 min before the test. Control animals received an (i.p.) or (s.c.) injection of a respective vehicle. All compounds were injected in a manner generally accepted in experimental pharmacology, in an amount of 10 mL/kg body weight.
# The measurement of the spontaneous locomotor activity was carried out using the OptoVarimex 4 Auto-Track device (Columbus Instruments, Columbus, OH, USA). Tested animals are kept in cages for 30 min. Their activity was recorded as interruptions of the light beams after 10 and 30 min of the test, and it was calculated automatically as a traveled distance in cm (±SEM). To determine whether compound 17 has an influence on amphetamine-induced hyperactivity, each mouse received 17 (25, 50 and 75 mg/kg; i.p.) and amphetamine (3 mg/kg; s.c.) 30 min after injection of 17 or vehicle and then spontaneous locomotor activity was measured.
# human 5-HT2A receptor = target: T2, human 5-HT2A receptor (Homo sapiens, UniProt P28223); test: Competition radioligand binding at human 5-HT2A receptor ([3H]-Ketanserin); conditions: mean ± SEM of 2 independent experiments, read-out: hu5-HT2A % inh. at 10 µM
# T2 construct: expressed in transfected cells; host or cells: CHO-K1
# T2 sequence (P28223 whole entry): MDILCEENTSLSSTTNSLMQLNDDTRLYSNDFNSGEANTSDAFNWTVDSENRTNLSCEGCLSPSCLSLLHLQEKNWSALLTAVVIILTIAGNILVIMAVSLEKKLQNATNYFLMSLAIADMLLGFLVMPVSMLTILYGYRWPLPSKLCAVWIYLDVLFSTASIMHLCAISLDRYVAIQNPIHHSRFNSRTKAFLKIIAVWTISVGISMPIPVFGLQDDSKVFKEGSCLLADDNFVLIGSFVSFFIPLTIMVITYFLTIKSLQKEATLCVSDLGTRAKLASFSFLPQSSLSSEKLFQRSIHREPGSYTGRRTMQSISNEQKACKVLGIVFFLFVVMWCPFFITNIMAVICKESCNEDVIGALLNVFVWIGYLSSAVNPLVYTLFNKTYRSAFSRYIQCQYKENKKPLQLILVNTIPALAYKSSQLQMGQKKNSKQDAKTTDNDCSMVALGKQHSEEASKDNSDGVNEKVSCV
# Experimental: as §1, §2
# human D2S receptor [2] = target: T3, human D2S receptor (Homo sapiens, UniProt P14416); test: Competition radioligand binding at human D2 receptor ([3H]-Spiperone, CHO-K1 membranes); conditions: mean ± SEM of 2–3 independent experiments in duplicate; read-out: huD2 Ki
# T3 construct: expressed in transfected cells; host or cells: CHO-K1
# T3 sequence (P14416 1-414 isoform P14416-2): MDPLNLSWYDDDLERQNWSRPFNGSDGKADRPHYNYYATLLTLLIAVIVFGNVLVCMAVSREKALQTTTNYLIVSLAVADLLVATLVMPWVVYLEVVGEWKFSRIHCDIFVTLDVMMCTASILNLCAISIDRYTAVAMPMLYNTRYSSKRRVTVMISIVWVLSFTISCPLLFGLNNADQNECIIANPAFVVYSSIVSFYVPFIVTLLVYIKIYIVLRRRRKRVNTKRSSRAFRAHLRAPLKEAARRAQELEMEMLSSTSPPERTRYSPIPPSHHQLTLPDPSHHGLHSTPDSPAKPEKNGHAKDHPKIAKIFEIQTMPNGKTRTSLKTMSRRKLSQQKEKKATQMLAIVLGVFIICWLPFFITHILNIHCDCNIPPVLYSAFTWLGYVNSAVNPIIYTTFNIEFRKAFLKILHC
# Experimental: Experiments were carried out in membranes isolated from a CHO-K1 cell line stably overexpressing the cloned human D2S receptor.
# as §1, §2
# human D2S receptor [3] = target: T3, human D2S receptor; test: Functional assays of cAMP signalling at D2 receptors (CHO-K1 cells, HTRF); type: cell-based
# Experimental: The assessment of the activity of selected compounds at the D2 receptor was performed in cell-based functional assays of cAMP signaling, in the CHO-K1 cell line with stable expression of the cloned human D2S receptor, which was also employed for the radioligand binding assays. For D2 receptor antagonism, test compounds were dispensed into an empty 96-well plate (Isoplate-96 Black Frame White Well, PerkinElmer España SL, Madrid, Spain) with the use of the dispensing noncontact Echo 550 acoustic liquid handler (LABCYTE Inc., San Jose, CA, USA). Compounds were handled from frozen 10^−2 M stock solutions in 100% DMSO, from which serial 1000× solutions were prepared in 100% DMSO at the time of the assay, keeping vehicle concentration (0.1% DMSO) constant in the assay. Vials containing viable frozen cells were quickly thawed in a 37 °C water bath and cells were seeded into the assay plate in assay buffer (kit stimulation buffer containing 500 µM 3-isobutyl-1-methylxanthine (IBMX), which was directly added to the buffer as powder). […] After 10 min incubation at 37 °C, 10 µM forskolin was added to the corresponding wells, and incubation was continued for 5 min. After this time, cellular cAMP levels were quantified using the homogeneous time-resolved fluorescence (HTRF)-based cAMP Gs dynamic kit (Cisbio, Bioassays, Codolet, France) according to the manufacturer’s protocol. […] Basal cAMP levels were determined in control wells in the absence of compound, agonist, and forskolin.
# T1 sequence (P21728 whole entry): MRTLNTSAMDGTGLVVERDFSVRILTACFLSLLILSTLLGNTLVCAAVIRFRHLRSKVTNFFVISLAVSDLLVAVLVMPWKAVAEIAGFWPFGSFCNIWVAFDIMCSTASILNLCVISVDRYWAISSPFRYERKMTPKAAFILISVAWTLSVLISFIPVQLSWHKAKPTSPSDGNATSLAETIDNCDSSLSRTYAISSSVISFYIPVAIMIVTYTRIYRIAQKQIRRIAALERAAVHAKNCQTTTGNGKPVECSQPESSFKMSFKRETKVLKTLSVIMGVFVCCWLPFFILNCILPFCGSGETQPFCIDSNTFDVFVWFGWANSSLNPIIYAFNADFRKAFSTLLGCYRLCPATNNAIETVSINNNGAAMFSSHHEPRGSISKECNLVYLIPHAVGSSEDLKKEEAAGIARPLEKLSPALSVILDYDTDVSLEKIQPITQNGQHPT
smiles,measurement,setting,value
"O=C(CCN1C(=O)CSc2ccccc21)Nc1ccc(Cl)cc1 [Compound 17, N-(4-Chlorophenyl)-3-(3-oxo-2,3-dihydro-4H-benzo[b][1,4]thiazin-4-yl)propanamide]",inhibition at 10 µM,[1],21 ± 2%
same,effect on amphetamine-induced hyperactivity,mice; 25 mg/kg i.p.,inactive
same,effect on amphetamine-induced hyperactivity after 10 min,mice; 50 mg/kg i.p.,decreased
same,effect on amphetamine-induced hyperactivity after 30 min,mice; 50 mg/kg i.p.,decreased
same,effect on amphetamine-induced hyperactivity after 10 min,mice; 75 mg/kg i.p.,decreased
same,effect on amphetamine-induced hyperactivity after 30 min,mice; 75 mg/kg i.p.,decreased
same,inhibition at 10 µM,human 5-HT2A receptor,28 ± 1%
same,Ki,human D2S receptor [2],381 ± 48 nM
same,Kb,"human D2S receptor [3]; antagonism of 1 µM dopamine response, forskolin-stimulated cAMP, three independent experiments, read-out: D2 Signalling (cAMP) pKb (Mean ± SEM) (converted)",26.9 nM
same,efficacy at D2 receptor (mode of action),"human D2S receptor [3]; cAMP signaling, CHO-K1 cells",antagonism
